We go through nine molecules from patent US7427627B2, “N-(4-(4-methylthiazol-5-yl) pyrimidin-2-yl)-N-phenylamines as antiproliferative compounds” (Cyclacel Limited, priority 2001, dated 2008).

In one test the target is CDK4/cyclin D1 (Homo sapiens, UniProt P11802). Kind of test: Kinase assay CDK4/cyclin D1.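 Also: Enzyme: His6-tagged recombinant human CDK4 produced in baculovirus-infected Sf9 insect cells and purified by metal-chelate chromatography.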
The subject of another test is Saos-2. Kind of test: 72-h MTT cytotoxicity assay, Saos-2. The test is classed as cell-based. The settings on record: Homo sapiens, SAOS-2, read-out: 72-h MTT in vitro IC50 (μM) Saos-2; Table 1; 72 h. On the procedure:
(§1) The compounds from the examples above were subjected to a standard cellular proliferation assay using human tumour cell lines obtained from the ATCC (American Type Culture Collection, 10801 University Boulevard, Manessas, Va. 20110-2209, USA). Standard 72-h MTT (thiazolyl blue; 3-[4,5-dimethylthiazol-2-yl]-2,5-diphenyltetrazolium bromide) assays were performed (Haselsberger, K.; Peterson, D. C.; Thomas, D. G.; Darling, J. L. Anti Cancer Drugs 1996, 7, 331-8; Loveland, B. E.; Johns, T. G.; Mackay, I. R.; Vaillant, F.; Wang, Z. X.; Hertzog, P. J. Biochemistry International 1992, 27, 501-10). In short: cells were seeded into 96-well plates according to doubling time and incubated overnight at 37° C. Test compounds were made up in DMSO and a 1/3 dilution series prepared in 100 μL cell media, added to cells (in triplicates) and incubated for 72 ho at 37° C. MTT was made up as a stock of 5 mg/mL in cell media and filter-sterilised. Media was removed from cells followed by a wash with 200 μL PBS. MTT solution was then added at 20 μL per well and incubated in the dark at 37° C. for 4 h. MTT solution was removed and cells again washed with 200 μL PBS. MTT dye was solubilised with 200 μL per well of DMSO with agitation.
For orientation: Tetrazolium dyes change colour on reduction, which living cells bring about.

For a further test, the target named is T1, CDK2/cyclin E (Homo sapiens, UniProt P24941).
T1 construct: His6
The test can be described thus: Kinase assay CDK2/cyclin E. Format: biochemical. Particulars: Table 1; read-out: Kinase inhibition, IC50 (μM) CDK2/E.

A further test concerns A549. The test can be described thus: 72-h MTT cytotoxicity assay, A549. Particulars: Homo sapiens, A549, read-out: 72-h MTT in vitro IC50 (μM) A549; Table 1; 72 h. Format: cell-based, human. The procedure:
In short: cells were seeded into 96-well plates according to doubling time and incubated overnight at 37° C. Test compounds were made up in DMSO and a 1/3 dilution series prepared in 100 μL cell media, added to cells (in triplicates) and incubated for 72 ho at 37° C. MTT was made up as a stock of 5 mg/mL in cell media and filter-sterilised. Media was removed from cells followed by a wash with 200 μL PBS. MTT solution was then added at 20 μL per well and incubated in the dark at 37° C. for 4 h. MTT solution was removed and cells again washed with 200 μL PBS. MTT dye was solubilised with 200 μL per well of DMSO with agitation.

A further test deals with HT29. The test can be described thus: 72-h MTT cytotoxicity assay, HT29. The test is classed as cell-based. Particulars: Homo sapiens, HT-29, read-out: 72-h MTT in vitro IC50 (μM) HT29; Table 1; 72 h. The procedure:
as §1

Like-named read-outs stand apart in the source and are kept apart here.

Chain of CDK4/cyclin D1 (P11802 whole entry): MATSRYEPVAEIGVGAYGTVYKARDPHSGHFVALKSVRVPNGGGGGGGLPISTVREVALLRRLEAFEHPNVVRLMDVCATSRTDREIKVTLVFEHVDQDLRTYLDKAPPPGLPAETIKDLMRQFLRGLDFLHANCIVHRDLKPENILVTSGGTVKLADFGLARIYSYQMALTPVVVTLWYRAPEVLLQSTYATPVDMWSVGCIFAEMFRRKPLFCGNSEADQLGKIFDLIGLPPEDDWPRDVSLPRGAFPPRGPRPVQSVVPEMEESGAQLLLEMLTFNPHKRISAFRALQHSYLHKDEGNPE
Chain of CDK4/cyclin D1 (P24385 whole entry partner): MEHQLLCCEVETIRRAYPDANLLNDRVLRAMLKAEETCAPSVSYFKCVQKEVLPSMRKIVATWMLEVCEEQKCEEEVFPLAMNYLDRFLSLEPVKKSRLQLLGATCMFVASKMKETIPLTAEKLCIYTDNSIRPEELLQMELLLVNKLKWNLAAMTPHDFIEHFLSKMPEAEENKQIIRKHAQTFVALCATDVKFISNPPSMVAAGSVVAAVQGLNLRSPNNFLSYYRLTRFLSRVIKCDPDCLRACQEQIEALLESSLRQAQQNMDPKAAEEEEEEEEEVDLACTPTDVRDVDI

On to `Cc1c(-c2ccnc(Nc3ccc(Cl)cc3)n2)sc(=O)n1C` [Compound 35, 5-[2-(4-Chloro-phenylamino)-pyrimidin-4-yl]-3,4-dimethyl-3H-thiazol-2-one], for which the IC50 against CDK4/cyclin D1 came to 1.09 µM; with Saos-2 it was 2.78 µM; at CDK2/cyclin E, 0.11 µM; in the test on A549, 0.89 µM; with HT29, 0.4 µM.
`COc1ccc(Nc2nccc(-c3sc(=O)n(C)c3C)n2)cc1` [Compound 36, 5-[2-(4-Methoxy-phenylamino)-pyrimidin-4-yl]-3,4-dimethyl-3H-thiazol-2-one]: the IC50 on CDK4/cyclin D1 worked out at 0.96 µM; in the test with Saos-2, 3.53 µM; on CDK2/cyclin E it was 0.25 µM; in the test on A549 it was 0.68 µM; with HT29, 0.69 µM.
In the same order, the values of `Cc1c(-c2ccnc(Nc3cccc(O)c3)n2)sc(=O)n1C` [Compound 37, 5-[2-(3-Hydroxy-phenylamino)-pyrimidin-4-yl]-3,4-dimethyl-3H-thiazol-2-one] are 1.41 µM, 0.98 µM, 0.12 µM, 0.66 µM and 1.99 µM.
For `Cc1c(-c2ccnc(Nc3ccc(F)c([N+](=O)[O-])c3)n2)sc(=O)n1C` [Compound 38, 5-[2-(4-Fluoro-3-nitro-phenylamino)-pyrimidin-4-yl]-3,4-dimethyl-3H-thiazol-2-one] the same measures were 2.33 µM, 2.17 µM, 0.12 µM, 1.12 µM and 0.55 µM.
Turning to `Cc1ccc(Nc2nccc(-c3sc(=O)n(C)c3C)n2)cc1I` [Compound 40, 5-[2-(3-Iodo-4-methyl-phenylamino)-pyrimidin-4-yl]-3,4-dimethyl-3H-thiazol-2-one], the IC50 on CDK4/cyclin D1 (read-out: Kinase inhibition, IC50 (μM) CDK4/D1, Table 1) stood at 3.98 µM; in the test on Saos-2, 22 µM; at CDK2/cyclin E, 0.7 µM; with A549, 6.63 µM; with HT29, 7.74 µM.
`Cc1nc(NS(C)(=O)=O)sc1-c1ccnc(Nc2cccc([N+](=O)[O-])c2)n1` [Compound 56, N-{4-Methyl-5-[2-(3-nitro-phenylamino)-pyrimidin-4-yl]-thiazol-2-yl}-methane sulfonamide]: the IC50 was found to be 1.13 µM at CDK4/cyclin D1; 0.16 µM in the test with Saos-2; 0.01 µM at CDK2/cyclin E; 0.1 µM in the test on A549; 0.17 µM in the test with HT29.
In the same order, the values of `Cc1nc(NCCO)sc1-c1ccnc(Nc2cccc([N+](=O)[O-])c2)n1` [Compound 58, 2-{4-Methyl-5-[2-(3-nitro-phenylamino)-pyrimidin-4-yl]-thiazol-2-ylamino}-ethanol] are 0.11 µM, 0.06 µM, 0.004 µM, 0.01 µM and 0.09 µM.
In the same order, the values of `Cc1nc(NC(=O)CCl)sc1-c1ccnc(Nc2cccc([N+](=O)[O-])c2)n1` [Compound 60, 2-Chloro-N-{4-methyl-5-[2-(3-nitro-phenylamino)-pyrimidin-4-yl]-thiazol-2-yl}-acetamide] are 0.86 µM, 0.21 µM, 0.07 µM, 0.15 µM and 0.25 µM.
For `Cc1nc(NC(=O)CCl)sc1-c1ccnc(Nc2ccc(F)cc2)n1` [Compound 61, 2-Chloro-N-{5-[2-(4-fluoro-phenylamino)-pyrimidin-4-yl]-4-methyl-thiazol-2-yl}-acetamide] the same measures were 0.68 µM, 0.3 µM, 0.23 µM, 0.33 µM and 0.11 µM.
